The text below walks through data of patent US8709511B2, “External preparation composition for skin comprising ginseng flower or ginseng seed extracts” (Amorepacific Corporation, priority 2008, dated 2014).

Experiment [1] concerns C57BL/6 mouse melanocytes (Mel-Ab cells). Briefly: Melanin synthesis inhibition using mouse melanocytes (Dooley's method). It counts as cell-based. Conditions: 72 h, 3 days. The protocol:
Mouse melanocytes were used to examine the melanin synthesis inhibitory effect of the ginseng flower extract prepared in Example 1, the ginseng seed oil prepared in Example 2 and the ginseng seed residue extract prepared in Example 3.
First, C57BL/6 mouse melanocytes (Mel-Ab cells; Dooley, T. P. et al., Skin Pharmacol., 7, pp. 188-200) were cultured in Dulbecco's modified Eagle's medium (DMEM) containing 10% fetal bovine serum, 100 nM 2-O-tetradecanoylphorbol-13-acetate and 1 nM cholera toxin under the condition of 37° C. and 5% CO2 . The cultured Mel-Ab cells were detached with 0.25% trypsin-EDTA and cultured in a 24-well culture plate at a concentration of 10^5 cells/well. Then, from day 2 of culture, each of 10 ppm, 50 ppm and 100 ppm of the ginseng flower extract (Example 1), the ginseng seed oil (Example 2) and the ginseng seed residue extract (Example 3) was continuously added thereto and cultured for 3 days. The positive control group was treated with arbutin (Sigma Co.). Then, the culture media were removed, and the cells were washed with PBS and lysed with 1 N sodium hydroxide. The lysed cells were measured for absorbance at 400 nm, and then the inhibition of melanin production was calculated according to Equation 2. […] Melanin synthesis inhibition (%)=100−[(Absorbance of each test material/Absorbance of control)×100] […]

In experiment [2] the test system is UVB-darkened human skin (upper arm). Briefly: Whitening on human skin after UVB-induced darkening (colorimeter). The experiment is classed as in vivo. Conditions: applied on UVB-irradiated upper arm for 10 weeks; vehicle 0.51 ± 0.13. The protocol:
In order to examine the whitening effect of the ginseng flower extract prepared in Example 1, the ginseng seed oil prepared in Example 2 and the ginseng seed residue extract prepared in Example 3 on human skin, the following test was carried out.
First, for 12 healthy men, a 1.5-cm perforated opaque tape was attached to the upper arm portion of the subjects, and then the attached portion was irradiated with UVB at a dose of about 1.5-2 times the minimal erythemal dose of each subject to induce skin darkening.
The color of the skin was measured with the colorimeter CR2002 (Minolta, Japan) at 1-week intervals.
Then, the difference in skin color (ΔL*) between the time point of initiation of application and the time point of completion of application of each test material was calculated according to Equation 3, and the calculation results are shown in Table 8. The whitening effect is evaluated by measuring the ΔL* value between the sample-applied portion and the control portion. […] L*=L* value at the time of completion of application−L* value at the time of initiation of application [Equation 3]

In experiment [3] the test system is matrix metalloproteinase 1 (MMP-1) in human fibroblasts. Nature of the experiment: Inhibition of UVB-induced MMP-1 expression (ELISA). It counts as cell-based. Conditions: UVB 40 mJ/cm^2, 10 μM, 2 days; non-UV = 100, UV alone 152. The protocol: Human fibroblasts were cultured in a 12-well culture plate at a concentration of 10^5 cells/well, and then irradiated with 40 mJ/cm ^2 of UVB. Then, the culture medium was replaced with media containing 1 ppm, 10 ppm and 50 ppm of the ginseng flower extract prepared in Example 1. At 2 days of culture, the cells were harvested, and the amount of produced matrix metalloproteinase 1 (MMP-1) was quantified using an ELISA method. The measurement results were calculated relative to 100 for the non-UV-irradiated control group not treated with the test material. The positive control group was treated with retinoic acid (RA, Sigma Co.).

Experiment [4] deals with human HaCaT keratinocyte monolayer culture system. Nature of the experiment: Inhibition of reactive oxygen species production after UVB (DCFH-DA fluorescence). It counts as cell-based. The protocol: Antioxidative effect of the ginseng flower extract and the ginseng seed extract was investigated by comparing the capacity of removing reactive oxygen species (ROS) produced in cells in response to UV radiation. The positive control group for the ginseng flower extract was treated with vitamin C (Sigma Co.), which is commonly used to compare antioxidative effect. And, the control group was left untreated. A human HaCaT keratinocyte monolayer culture system (P. Boukamp, German Cancer Research Center, Heidelberg, Germany) was treated with UV (UVB 30 mJ/cm^2) and then with the extract prepared in Example 1 at 10 ppm, 50 ppm and 100 ppm. Then, 2′,7′-dichlorodihydrofluorescein diacetate (DCFH-DA; Molecular Probes, Inc.) was measured with a fluorescence plate reader. Production of ROS was calculated relative to the UV-untreated control group. The positive control group for the ginseng seed extract was treated with Trolox (Aldrich Co.), which is commonly used to compare antioxidative effect. And, the control group was left untreated. […] Then, DCFH-DA (Molecular Probes, Inc.) was measured with a fluorescence plate reader. Inhibition of ROS production was calculated relative to the UV-treated control group.

Experiment [5] has as its system type I procollagen in human fibroblasts. Briefly: Type I procollagen assay (ELISA). The experiment is classed as cell-based. Conditions: 10 ng/mL, 3 days; positive control set to 100. The protocol:
Human fibroblasts were cultured in a 12-well culture plate at a concentration of 10 ^5 cells/well, and then the medium was replaced with media containing 1 ppm, 10 ppm and 50 ppm of the ginseng flower extract prepared in Example 1 or with media containing 1 ppm and 10 ppm of the ginseng seed oil prepared in Example 2 or the ginseng seed residue extract prepared in Example 3, as shown in Table 4. At 3 days of culture, the cells were harvested, and the amount of the produced type I procollagen was quantified using an ELISA method. The measurement results were calculated relative to 0 for the control group containing neither the ginseng flower extract nor the ginseng seed extract and 100 for the positive control group (human transforming growth factor-β1 (TGF-β1, Roche Co.)).

For another experiment, the system named is Human normal fibroblasts. Nature of the experiment: Inhibition of oxidative damage of DNA by single cell gel electrophoresis (comet assay), H2O2 challenge. It counts as cell-based. Conditions: 10 ppm. The protocol:
Human normal fibroblasts were cultured for 24 hours and treated with varying concentrations of the ginseng flower extract prepared in Example 1, the ginseng seed oil prepared in Example 2, the ginseng seed residue extract prepared in Example 3 and vitamin E. After 12 hours, the cells were treated with the positive control H2O2 (final concentration: 10^−3 M), stained by electrophoresis, and then observed with a fluorescence microscope. The image analyzer Komet 3.1 (Kinetic Imaging, England) was used to analyze the tail length (μm) resulting from the digestion of DNA in each of 25 cells.

In turn, `OC[C@H]1O[C@@H](Oc2ccc(O)cc2)[C@H](O)[C@@H](O)[C@@H]1O` [Arbutin, arbutin] gave an inhibition at 100 ppm in experiment [1] of 51%. For the compound `Oc1ccc(O)cc1` [Hydroquinone, hydroquinone], the “Skin color brightness (ΔL*)” value in experiment [2] was 1.89 ± 0.15. In the case of `CC1=C(/C=C/C(C)=C/C=C/C(C)=C/C(=O)O)C(C)(C)CCC1` [RA, retinoic acid], in experiment [3], the “MMP-1 biosynthesis (%)” value is recorded as 45%.

As for `Cc1c(C)c2c(c(C)c1O)CCC(C)(C(=O)O)O2` (centres unmarked) [Trolox], the “Inhibition of ROS production (%)” value in experiment [4] (UVB 30 mJ/cm^2, 0.1 mM, relative to UV-treated control) came out at 42.7%. In the case of `O=C1O[C@H]([C@@H](O)CO)C(O)=C1O` [vitamin C], the “ROS production (%)” value in experiment [4] (UVB 30 mJ/cm^2, 100 μM, relative to UV-untreated control = 100 (UVB alone 161)) was found to be 72%. Regarding “TGF-β1: human transforming growth factor-β1 (Roche Co.), positive control”, the “Type I procollagen biosynthesis (%)” value in experiment [5] is on record as 100%.

For vitamin E, the “Tail length (μm)” value with Human normal fibroblasts (12 h before H2O2 10^-3 M, control 112.4) was determined as 68.9 μm. The “Inhibition (%)” value in the experiment on Human normal fibroblasts (inhibition of oxidative DNA damage (tail length) vs control) is listed as 38.7%.

In general, inhibition refers to the change of the read-out against control, counted positive when it falls.
